Laboratory results as given in patent publication US7749539B2, “Polymeric formulations for drug delivery” (Efrat Biopolymers Ltd., priority 2000, dated 2010).

Key:
[1] = Release of peptides from liquid poly(SA-RA) 30:70; assay type: physicochemical; settings: 200 mg in 800 mg poly(SA-RA) 30:70, phosphate buffer pH7.4, 37°C
Procedure: Insulin powder (200 mg) was mixed in liquid poly(SA-RA) 30:70 (800 mg) at room temperature. The uniform formulation was added in buffer solution (100 mg in 50 ml phosphate buffer pH7.4 at 37° C.) and the release of insulin to the solution was determined by HPLC. A constant release of insulin for more than 30 days was obtained.

[2] = In vitro release of drug combinations from liquid poly(sebacic-ricinoleic ester anhydride); assay type: physicochemical; settings: for release in combination compared with the drug alone: 1:1 w/w mixture of cisplatin or carboplatin with paclitaxel
Text: The combination of two or more anticancer agents in the polymer implant was investigated. The release of a combination of drugs from liquid formulations of poly(sebacic-ricinoleic ester anhydride) was studied using a 1:1 w/w mixture of cisplatin or carboplatin with paclitaxel.

[3] = intravenous injection, cited from earlier work

Compound: Insulin: Insulin powder mixed in liquid poly(SA-RA) 30:70
- duration of constant release [1]: more than 30 days

Compound: rapamycine
- release of co-incorporated drug from the device ([2]; incorporated along with paclitaxel or other anticancer agents): released constantly

Compound: N.N.[Cl][Pt][Cl] [cisplatin]
- release in combination compared with the drug alone [2]: slower

Compound: N.N.O=C([O-])C1(C(=O)[O-])CCC1.[Pt+2] [carboplatin]
- release in combination compared with the drug alone [2]: slower

Compound: CC(=O)O[C@H]1C(=O)[C@@]2(C)[C@H]([C@H](OC(=O)c3ccccc3)[C@]3(O)C[C@H](OC(=O)[C@H](O)[C@@H](NC(=O)c4ccccc4)c4ccccc4)C(C)=C1C3(C)C)[C@]1(OC(C)=O)CO[C@@H]1C[C@@H]2O [paclitaxel]
- release in combination compared with the drug alone [2]: slightly enhanced
- maximum tolerated dose (MTD) ([3]; female SPF C3H/HeNcrj mice): 26 mg/kg
- dose at which death due to toxicity was observed ([3]; mice): 30 mg/kg
